One block for each compound: values may come before it.
Assays:
[1] = system: oedema induced by TPA (phorbol 12-myristate-13-acetate) on mouse ear; experiment: Model of acute inflammation on mouse ear: oedema induced by TPA; format: in vivo; conditions: for IC50 (concentration at which 50% inhibition of the oedema induced by TPA alone is observed): applied with 0.01% TPA in ethanol, oedema measured 6 hours after application; for inhibition of the TPA-induced inflammation: concentration of 1%, TPA test in mice
Procedure: The anti-inflammatory activities of the compound of formula (I) in racemic form, of metronidazole and of flurbiprofen (racemic) were measured in an in vivo test performed on a mouse model.
The model used is the model of mouse ear inflammation induced by a single application of TPA (phorbol 12-myristate-13-acetate). Female Balb/c ByJlco mice are used.
The oedema is induced by applying to the ear 20 μl of 0.01% TPA dissolved in ethanol.
The racemic compound of formula (I) is dissolved, at the desired concentration, in the 0.01% TPA solution and thus applied to a group of mice at the same time as the TPA.
Similarly, flurbiprofen (racemic) is dissolved, at the desired concentration, in the 0.01% TPA solution and thus applied to another group of mice at the same time as the TPA.
Finally, metronidazole is dissolved, at the desired concentration, in the 0.01% TPA solution and thus applied to another group of mice at the same time as the TPA.
The oedema is evaluated, 6 hours after application, by measuring the thickness of the ear using an Oditest® micrometer.
The TPA-induced oedema is evaluated relative to the ethanol vehicle group. The inhibition, with the racemic compound of formula (I), with flurbiprofen (racemic) or with metronidazole, of the oedema induced by TPA alone is expressed by the IC50.
The IC50 corresponds to the concentration (or dose) at which 50% inhibition of the oedema induced by TPA alone is observed.

[2] = system: oedema induced by arachidonic acid (AA) on mouse ear; experiment: Model of acute inflammation on mouse ear: arachidonic acid-induced oedema; format: in vivo; conditions: for IC50 (concentration at which 50% inhibition of the oedema induced by AA alone is observed): topical on mouse ear, oedema measured 1 hour after application, % weight per volume of solution
Procedure: The anti-inflammatory activities of the compound of formula (I) in racemic form, of the S enantiomer of the compound of formula (I), of metronidazole and of flurbiprofen were measured in an in vivo test performed on a mouse model. This model consists in inducing inflammation of the mouse ear with a single application of arachidonic acid (AA). Female Balb/c ByJlco mice are used. The oedema is induced by applying to the mouse's ear 20 μL of AA dissolved to 4% in a 1/1 THF/methanol mixture. The anti-inflammatory activities of the S enantiomer of the compound of formula (I), of the compound of formula (I) in racemic form, of metronidazole and of flurbiprofen were evaluated after topical application onto the inner face of the mouse's ear of 20 μL of a solution of the compound in a 1/1 THF/methanol mixture containing 4% AA.
Solutions containing 0.01%; 0.03%; 0.1%; 0.3%; 1% and 2% of the test compound are thus prepared. The percentages correspond to the weight of the test compound per volume of solution. The oedema is evaluated, 1 hour after application, by measuring the thickness of the ear using an Oditest® micrometer. The oedema induced by AA alone is evaluated, 1 hour after application, by measuring the thickness of the ear using an Oditest® micrometer. It is evaluated relative to a group comprising only the vehicle (1/1 THF/methanol).
The inhibition of the oedema is expressed as a percentage of reduction, by the test molecule and at the test concentration, of the oedema induced by AA alone.
The IC50 corresponds to the concentration (or dose) at which 50% inhibition of the oedema induced by AA alone is observed.

[3] = system: human neonatal keratinocytes; experiment: Stability on keratinocyte cultures; format: in vitro ADME; conditions: human keratinocyte cultures
Procedure: (§1) The stability on keratinocyte cultures is evaluated using human neonatal keratinocytes (Cell'N Tech) cultured in a 75 cm^2 flask and detached at 90-100% of confluence with vegetable trypsin (trypLE GIBCO). The compound of formula (I) was tested at 2 μM in the medium CNT-057 (Cell'N Tech) supplemented with 0.1% pluronic acid in 24-well plates. The final DMSO concentration is 0.1%. Degradation kinetics are performed with a Tecan EVO robot over 24 hours. The samples taken are then assayed by LC/MS/MS (Micromass) in comparison with a calibration range of the test product, prepared under the same conditions as the samples (⅓ culture medium and ⅔ methanol). The chromatographic conditions are optimized for each product. An assay of the appearance of metronidazole is also performed using these same samples.

[4] = Stability on keratinocyte cultures; format: in vitro ADME, human; conditions: 2 μM, human neonatal keratinocyte culture, kinetics over 24 hours, LC/MS/MS; read-out: half-life time (t1/2) (converted)
Procedure: as §1

SMILES: Cc1ncc([N+](=O)[O-])n1CCOC(=O)[C@H](C)c1ccc(-c2ccccc2)c(F)c1 [2-(2-methyl-5-nitroimidazol-1-yl)ethyl (R)-2-(2-fluorobiphenyl-4-yl)propionate]
inhibition of the TPA-induced inflammation [1]: 85%

SMILES: C[C@@H](C(=O)O)c1ccc(-c2ccccc2)c(F)c1 [(R)-flurbiprofen]
inhibition of the TPA-induced inflammation [1]: 80%

SMILES: C[C@H](C(=O)O)c1ccc(-c2ccccc2)c(F)c1 [(S)-flurbiprofen]
inhibition of the TPA-induced inflammation [1]: 70%

SMILES: COc1ccc2c(c1)c(CC(=O)OCCn1c([N+](=O)[O-])cnc1C)c(C)n2C(=O)c1ccc(Cl)cc1 [metronidazole ester with indomethacin]
hydrolysis / stability of the ester on keratinocyte cultures [3]: do not become hydrolysed

SMILES: Cc1ncc([N+](=O)[O-])n1CCOC(=O)c1cccnc1Nc1cccc(C(F)(F)F)c1 [metronidazole ester with niflumic acid]
hydrolysis / stability of the ester on keratinocyte cultures [3]: do not become hydrolysed

SMILES: Cc1ncc([N+](=O)[O-])n1CCO [metronidazole]
anti-inflammatory activity ([1]; TPA-induced mouse ear oedema, result in words): no anti-inflammatory activity
anti-inflammatory activity ([2]; AA-induced mouse ear oedema, result in words): no anti-inflammatory activity

More lines, main results first:

IC50 (concentration at which 50% inhibition of the oedema induced by TPA alone is observed) [1]: 0.22%
hydrolysis / stability of the ester on keratinocyte cultures [3]: specifically cleaved in keratinocytes
half-life at 2 μM [4]: 6 h
SMILES: Cc1ncc([N+](=O)[O-])n1CCOC(=O)C(C)c1ccc(-c2ccccc2)c(F)c1 (racemic) [2-(2-methyl-5-nitroimidazol-1-yl)ethyl 2-(2-fluorobiphenyl-4-yl)propionate]
anti-inflammatory activity compared with flurbiprofen ([2]; dose of 1%, AA-induced mouse ear oedema, result in words): equivalent to that of flurbiprofen (racemic) at the 0.1% dose

IC50 (concentration at which 50% inhibition of the oedema induced by TPA alone is observed) [1]: 0.22%
IC50 (concentration at which 50% inhibition of the oedema induced by AA alone is observed) [2]: 0.037%
SMILES: CC(C(=O)O)c1ccc(-c2ccccc2)c(F)c1 (racemic) [flurbiprofen (racemic), flurbiprofen]
inhibition of the oedema induced by AA alone ([2]; dose of 0.1%, topical, 1 hour after application): 60%

IC50 (concentration at which 50% inhibition of the oedema induced by AA alone is observed) [2]: 1%
half-life at 2 μM [4]: 18 h
SMILES: Cc1ncc([N+](=O)[O-])n1CCOC(=O)[C@@H](C)c1ccc(-c2ccccc2)c(F)c1 [2-(2-methyl-5-nitroimidazol-1-yl)ethyl (S)-2-(2-fluorobiphenyl-4-yl)propionate]
inhibition of the TPA-induced inflammation [1]: 95%

hydrolysis / stability of the ester on keratinocyte cultures [3]: do not become hydrolysed
SMILES: Cc1ncc([N+](=O)[O-])n1CCOC(=O)c1cc(-c2ccc(F)cc2F)ccc1O [metronidazole ester with diflunisal]

hydrolysis / stability of the ester on keratinocyte cultures [3]: do not become hydrolysed
SMILES: Cc1ncc([N+](=O)[O-])n1CCOC(=O)C1CCn2c(C(=O)c3ccccc3)ccc21 (stereo not shown) [metronidazole ester with ketorolac]
